Series [1] deals with HP 43504. The series is described as follows: Disc diffusion assay against HP for various compounds, HP 43504. It counts as cell-based, Helicobacter pylori. To be noted: for Disc diffusion diameter: 40 μl on 8 mm disc, 48 hours; for anti-HP activity compared to other compounds: HP 43504 lawn, disc diffusion.
For series [2] the following is noted: ornithine transcarbamylase-deficient patients, median dose 352 mg/kg/day, 26-month follow-up; cited from earlier work.
Series [3] relates to HP 238. The series is described as follows: Disc diffusion assay against HP for various compounds, HP 238. The settings on record: for Disc diffusion diameter: 40 μl on 8 mm disc, 48 hours; for anti-HP activity compared to other compounds: HP 238 lawn, disc diffusion. It counts as cell-based, Helicobacter pylori.
In series [4] the test system is H. pylori ATCC43504 (HP 43504). The series is described as follows: Minimum inhibitory concentration (MIC) against HP 43504. The format is cell-based. To be noted: Helicobacter pylori. Here is the method: (§1) The HP strains used in the present studies are H. pylori ATCC43504 (HP 43504) and HP 238. HP 238 was isolated from a patient with MALToma in National Cheng Kung University Hospital, Tainan, Taiwan, and used as an antibiotic sensitive control. These strains were cultured under a microaerophilic condition (O2 5%, CO2 10%, N2 85%) in a 37° C. chamber.

In series [5] the test system is HP 238. The series is described as follows: Disc diffusion assay against HP for PB plus various antibiotics, HP 238. To be noted: HP 238, CDC agar, 8 mm disc, 48 hours; AMO 0.015 μg/20 μl, MTZ 5 μg/20 μl, TC 0.5 μg/20 μl, plus 20 μl water or 4-PB 2 mg/20 μl. The format is cell-based, Helicobacter pylori. The method, then:
HP 43504 and HP 2378 were further used for testing PB in combination with various antibiotics in disc diffusion assays. After 2 days' pre-culture in a microaerophilic condition (O2 5%, CO2 10%, N2 85%) at 37° C., HP was suspended in a Brucella broth containing 5% sucrose to adjust its clone density at 1×10^8 CFU/ml. Then 100 μl of the bacterial suspension was inoculated onto a CDC agar plate. […] The agar plates were later transferred to a microaerobic jar to incubate at 37° C. The diameter of each inhibition zone (clear zone size) in the bacterial lawn was measured 48 hours later. […]

The test system of series [6] is HP 43504. The series is described as follows: Disc diffusion assay against HP for PB plus various antibiotics, HP 43504. To be noted: HP 43504, CDC agar, 8 mm disc, 48 hours; AMO 0.015 μg/20 μl, MTZ 5 μg/20 μl, TC 0.5 μg/20 μl, plus 20 μl water or 4-PB 2 mg/20 μl. The format is cell-based, Helicobacter pylori. Here is the method:
HP 43504 and […] were further used for testing PB in combination with various antibiotics in disc diffusion assays. After 2 days' pre-culture in a microaerophilic condition (O2 5%, CO2 10%, N2 85%) at 37° C., HP was suspended in a Brucella broth containing 5% sucrose to adjust its clone density at 1×10^8 CFU/ml. Then 100 μl of the bacterial suspension was inoculated onto a CDC agar plate. […] The agar plates were later transferred to a microaerobic jar to incubate at 37° C. The diameter of each inhibition zone (clear zone size) in the bacterial lawn was measured 48 hours later. The tested combinations used in this experiment comprised 4-PB (50 mg/ml) with amoxicillin (AMO), metronidazole (MTZ) or tetracycline (TC).

The subject of series [7] is HP 238. The series is described as follows: Minimum inhibitory concentration (MIC) against HP 238. The format is cell-based. To be noted: Helicobacter pylori; against clinically isolated strain HP 238. Here is the method:
as §1

Where [8] appears, read: HP 43504, Brucella agar, 50 mg/ml.
Where [9] appears, read: HP 43504, Brucella agar, 100 mg/ml.
The mark [10] stands for this setting: HP 238, Brucella agar, 50 mg/ml.
Where [11] appears, read: HP 238, Brucella agar, 100 mg/ml.
Where [12] appears, read: HP 43504, 100 mg/ml, no clear zone outside the paper disc.
Setting [13] is: HP 238, 100 mg/ml, no clear zone outside the paper disc.

Values after ≈ are worked out from the molar mass of the structure shown.

Regarding 4-phenylbutyrate [4-PB], the Disc diffusion diameter is reported as 8 mm in series [1] (HP 43504, Brucella agar, 5 mg/ml); 8 mm in series [1] (HP 43504, Brucella agar, 25 mg/ml); 33 mm in series [1] (setting [8]); 45 mm in series [1] (setting [9]); 8 mm in series [1] (HP 43504, CDC agar, 5 mg/ml); 8 mm in series [1] (HP 43504, CDC agar, 25 mg/ml). The Disc diffusion diameter stood at 17 mm in series [1] (HP 43504, CDC agar, 50 mg/ml); 8 mm in series [3] (HP 238, Brucella agar, 5 mg/ml); 26 mm in series [3] (HP 238, Brucella agar, 25 mg/ml); 40 mm in series [3] (setting [10]); 64 mm in series [3] (setting [11]); 8 mm in series [3] (HP 238, CDC agar, 5 mg/ml). Besides, the Disc diffusion diameter in series [3] (HP 238, CDC agar, 25 mg/ml) turned out to be 9 mm; in series [3] (HP 238, CDC agar, 50 mg/ml), 23 mm. Besides, the “anti-HP activity compared to other compounds” value in series [1] and in series [3] was “much better anti-HP activity” in each case. The “side effects related to therapy” value in series [2] is “neither hyperammonemic episodes requiring hospitalization nor side effects related to therapy occurred”.
With `NCCC(N)C(=O)O` (centres unmarked) [2,4-DAB, 2,4-diaminobutyric acid], the anti-HP activity result in series [1] (setting [12]) and in series [3] (setting [13]) was “no obvious anti-HP activity” in each case. Also, the Disc diffusion diameter in series [1] (setting [9]) worked out at 8 mm; in series [1] (HP 43504, CDC agar, 100 mg/ml) it was 8 mm; in series [3] (setting [11]), 8 mm; in series [3] (HP 238, CDC agar, 100 mg/ml), 8 mm.
Consider `CCC(N)C(=O)O` (centres unmarked) [2-AB, 2-aminobutyric acid], for which the anti-HP activity result in series [1] (setting [12]) and in series [3] (setting [13]) was “no obvious anti-HP activity” throughout. The Disc diffusion diameter in series [1] (setting [9]) worked out at 8 mm; in series [1] (HP 43504, CDC agar, 100 mg/ml), 8 mm; in series [3] (setting [11]), 8 mm; in series [3] (HP 238, CDC agar, 100 mg/ml), 8 mm.
Turning to `CCC(C(=O)O)c1ccccc1` (centres unmarked) [2-PB, 2-phenylbutyrate], the Disc diffusion diameter in series [1] (setting [8]) is 18 mm; in series [1] (HP 43504, CDC agar, 50 mg/ml), 8 mm; in series [3] (setting [10]), 24 mm; in series [3] (HP 238, CDC agar, 50 mg/ml) it was 14 mm. Besides, the “anti-HP activity compared to other compounds” value in series [1] and in series [3] was “much better anti-HP activity” throughout.
In the case of `CCCC(=O)[O-].[Na+]` [Butyrate, Sodium butyrate], the Disc diffusion diameter in series [1] (HP 43504, CDC agar, 50 mg/ml) is listed as 8 mm; in series [3] (HP 238, CDC agar, 50 mg/ml), 11 mm. Also, the disc diffusion capacity entry in series [1] (HP 43504, compared with 4-PB or 2-PB) is “much smaller than 4-PB or 2-PB”; in series [3] (HP 238, compared with 4-PB or 2-PB), “much smaller than 4-PB or 2-PB”.
Take `NCCCC(=O)O` [GABA, gama-aminobutyric acid]: the anti-HP activity result in series [1] (setting [12]) and in series [3] (setting [13]) was “no obvious anti-HP activity” each time. Further, the Disc diffusion diameter in series [1] (setting [9]) is 8 mm; in series [1] (HP 43504, CDC agar, 100 mg/ml), 8 mm; in series [3] (setting [11]) it was 8 mm; in series [3] (HP 238, CDC agar, 100 mg/ml), 8 mm.
As for `CCCC(CCC)C(=O)[O-].[Na+]` [Valproate, sodium valproate], the anti-HP activity entry in series [1] (HP 43504, 2 mg/ml to 16 mg/ml) is “no obvious anti-HP activity”; in series [3] (HP 238, 2 mg/ml to 16 mg/ml) it was “no obvious anti-HP activity”. In addition, the Disc diffusion diameter in series [1] (HP 43504, CDC agar, 2 mg/ml) came out at 8 mm; in series [1] (HP 43504, CDC agar, 4 mg/ml), 8 mm; in series [1] (HP 43504, CDC agar, 8 mg/ml), 8 mm; in series [1] (HP 43504, CDC agar, 16 mg/ml), 8 mm; in series [3] (HP 238, CDC agar, 2 mg/ml), 8 mm; in series [3] (HP 238, CDC agar, 4 mg/ml) it was 8 mm. Moreover, the Disc diffusion diameter is recorded as 8 mm in series [3] (HP 238, CDC agar, 8 mg/ml) and 8 mm in series [3] (HP 238, CDC agar, 16 mg/ml).
Turning to `CC1(C)S[C@@H]2[C@H](NC(=O)[C@H](N)c3ccc(O)cc3)C(=O)N2[C@H]1C(=O)O` [amoxicillin], the MIC in series [4] is 0.12 µg/mL (≈ 0.328 µM). The “diameter of inhibition zone (clear zone size)” value (“diameter of inhibition zone” for short) in series [5] and in series [6] was 8 mm throughout.
On to `Cc1ncc([N+](=O)[O-])n1CCO` [metronidazole], for which the MIC amounted to 0.25 µg/mL (≈ 1.46 µM) in series [7] and 256 µg/mL (≈ 1500 µM) in series [4]. For the same molecule, the “diameter of inhibition zone” value amounted to 16 mm in series [5] and 8 mm in series [6].
The molecule `CN(C)[C@@H]1C(O)=C(C(N)=O)C(=O)[C@@]2(O)C(O)=C3C(=O)c4c(O)cccc4[C@@](C)(O)[C@H]3C[C@@H]12` [tetracycline] returned an MIC in series [4] of 1 µg/mL (≈ 2.25 µM). The “diameter of inhibition zone” value turned out to be 15 mm in series [5] and 8 mm in series [6].
